Measurements published in patent publication US12157730B2, “Heteroaryl derivative, method for producing same, and pharmaceutical composition comprising same as effective component” (VORONOI INC., priority 2019, dated 2024).

Target: T1, Ba/F3 cell EGFR Exon20 ins NPH (Homo sapiens, UniProt P00533, INS773NPH)
T1 construct: expressed in transfected cells; host or cells: Ba/F3
Experiment: Ba/F3 cell proliferation suppression, EGFR Exon20 ins NPH
Assay type: cell-based
Conditions: GI50 class; Ba/F3 cell line with NPH inserted at Exon20 of EGFR; 72 hours
In short: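 Cells (3000–5000/well) plated 24 h before compound, 12-point 3-fold dilutions at 0.3 nM to 50 um final; Ba/F3 lines grown with 5 ng/ml IL-3. Viability by CellTiter-Glo luminescence after 72 h, growth ratio vs control, GI50 from curves; triplicate.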

Structure (SMILES): C=CC(=O)Nc1cc(Nc2cc(N3OCC[C@@H]3c3cccc(Cl)c3Cl)ncn2)c(OC)cc1N1CCC(N2CCN(C3CC3)CC2)CC1 [Example 162, N-(2-(4-(4-cyclopropylpiperazine-1-yl)piperidine-1-yl)-5-((6-((R)-3-(2,3-dichlorophenyl)isoxazolidine-2-yl)pyrimidine-4-yl)amino)-4-methoxyphenyl) acrylamide]
- Ba/F3 (NPH) Activity: A (GI50 < 50 nM)

Structure (SMILES): C=CC(=O)Nc1cc(Nc2cc(N3OCC[C@@H]3Cc3cccc(F)c3Cl)ncn2)c(OC)cc1N1CCN(C2CC2)CC1 [compound 1006, N-(5-((6-((S)-3-(2-chloro-3-fluorobenzyl)isoxazolidine-2-yl)pyrimidine-4-yl)amino)-2-(4-cyclopropylpiperazine-1-yl)-4-methoxyphenyl) acrylamide]
- Ba/F3 (NPH) Activity: A (GI50 < 50 nM)

Structure (SMILES): C=CC(=O)Nc1cc(Nc2cc(N3OCC[C@@H]3c3ccccc3)ncn2)c(OC)cc1N1CCC(N(C)CCOC)CC1 [compound 736, N-(4-methoxy-2-(4-((2-methoxyethyl) (methyl)amino)piperidine-1-yl)-5-((6-((R)-3-phenylisoxazolidine-2-yl)pyrimidine-4-yl)amino)phenyl) acrylamide]
- Ba/F3 (NPH) Activity: A (GI50 < 50 nM)

Structure (SMILES): C=CC(=O)Nc1cc(Nc2cc(N3OCC[C@@H]3Cc3cccc(Cl)c3Cl)ncn2)c(OC)cc1N1CCC(N2CCN(C3CC3)[C@H](C)C2)CC1 [compound 980, N-(2-(4-((R)-4-cyclopropyl-3-methylpiperazine-1-yl)piperidine-1-yl)-5-((6-((S)-3-(2,3-dichlorobenzyl)isoxazolidine-2-yl)pyrimidine-4-yl)amino)-4-methoxyphenyl) acrylamide]
- Ba/F3 (NPH) Activity: A (GI50 < 50 nM)

Structure (SMILES): C=CC(=O)Nc1cc(Nc2cc(N3OCC[C@@H]3c3cc(F)cc(Cl)c3F)ncn2)c(OC)cc1N1CCC(N2CCN(C3CC3)CC2)CC1 [compound 938, N-(5-((6-((R)-3-(3-chloro-2,5-difluorophenyl)isoxazolidine-2-yl)pyrimidine-4-yl)amino)-2-(4-(4-cyclopropylpiperazine-1-yl)piperidine-1-yl)-4-methoxyphenyl) acrylamide]
- Ba/F3 (NPH) Activity: A (GI50 < 50 nM)

Structure (SMILES): C=CC(=O)Nc1cc(Nc2cc(N3OCC[C@@H]3c3ccc(F)cc3)ncn2)c(OC)cc1N1CCC(N2CC[C@H](N(C)C)C2)CC1 [compound 811, N-(2-(4-((S)-3-(dimethylamino)pyrolidine-1-yl)piperidine-1-yl)-5-((6-((R)-3-(4-fluorophenyl)isoxazolidine-2-yl)pyrimidine-4-yl)amino)-4-methoxyphenyl) acrylamide]
- Ba/F3 (NPH) Activity: A (GI50 < 50 nM)

Structure (SMILES): C=CC(=O)Nc1cc(Nc2cc(N3OCC[C@@H]3c3cc(F)cc(F)c3)ncn2)c(OC)cc1N1CCC(N2CCN(C3CCCC3)CC2)CC1 [Example 98, N-(2-(4-(4-cyclopentylpiperazine-1-yl)piperidine-1-yl)-5-((6-((R)-3-(3,5-difluorophenyl)isoxazolidine-2-yl)pyrimidine-4-yl)amino)-4-methoxyphenyl) acrylamide]
- Ba/F3 (NPH) Activity: A (GI50 < 50 nM)

Structure (SMILES): C=CC(=O)Nc1cc(Nc2cc(N3OCC[C@@H]3c3cccc(F)c3F)ncn2)c(OC)cc1N1CCC(N2CCC(F)(F)CC2)CC1 [compound 341, N-(2-(4,4-difluoro-[1,4'-bipiperidine]-1'-yl)-5-((6-((R)-3-(2,3-difluorophenyl)isoxazolidine-2-yl)pyrimidine-4-yl)amino)-4-methoxyphenyl) acrylamide]
- Ba/F3 (NPH) Activity: A (GI50 < 50 nM)

Structure (SMILES): C=CC(=O)Nc1cc(Nc2cc(N3OCC[C@@H]3c3ccc(F)c(F)c3)ncn2)c(OC)cc1N1CCC(N2C[C@@H]3C[C@H]2CO3)CC1 [compound 497, N-(2-(4-((1S,4S)-2-oxa-5-azabicyclo[2.2.1]heptane-5-yl)piperidine-1-yl)-5-((6-((R)-3-(3,4-difluorophenyl)isoxazolidine-2-yl)pyrimidine-4-yl)amino)-4-methoxyphenyl) acrylamide]
- Ba/F3 (NPH) Activity: B (50 nM ≤ GI50 < 500 nM)

Structure (SMILES): C=CC(=O)Nc1cc(Nc2cc(N3OCC[C@@H]3c3cc(F)ccc3F)ncn2)c(OC)cc1N1CCC(N2CCN(C)[C@H](C)C2)CC1 [compound 851, N-(5-((6-((R)-3-(2,5-difluorophenyl)isoxazolidine-2-yl)pyrimidine-4-yl)amino)-2-(4-((R)-3,4-dimethylpiperazine-1-yl)piperidine-1-yl)-4-methoxyphenyl) acrylamide]
- Ba/F3 (NPH) Activity: A (GI50 < 50 nM)

Structure (SMILES): C=CC(=O)Nc1cc(Nc2cc(N3OCC[C@@H]3Cc3cccc(Cl)c3OC)ncn2)c(OC)cc1N1CCC(N2C[C@H]3C[C@@H]2CO3)CC1 [compound 1055, N-(2-(4-((1R,4R)-2-oxa-5-azabicyclo [2.2.1]heptane-5-yl)piperidine-1-yl)-5-((6-((S)-3-(3-chloro-2-methoxybenzyl)isoxazolidine-2-yl)pyrimidine-4-yl)amino)-4-methoxyphenyl) acrylamide]
- Ba/F3 (NPH) Activity: A (GI50 < 50 nM)

Structure (SMILES): C=CC(=O)Nc1cc(Nc2cc(N3OCC[C@@H]3c3cccc(C(F)(F)F)c3)ncn2)c(OC)cc1N1CCN(CC)CC1 [compound 452, N-(2-(4-ethylpiperazine-1-yl)-4-methoxy-5-((6-((R)-3-(3-(trifluoromethyl)phenyl)isoxazolidine-2-yl)pyrimidine-4-yl)amino)phenyl) acrylamide]
- Ba/F3 (NPH) Activity: A (GI50 < 50 nM)

Structure (SMILES): C=CC(=O)Nc1cc(Nc2cc(N3OCC[C@@H]3c3cccc(Cl)c3)ncn2)c(OC)cc1N1CCC(N2C[C@@H]3C[C@H]2CO3)CC1 [compound 462, N-(2-(4-((1S,4S)-2-oxa-5-azabicyclo [2.2.1]heptane-5-yl)piperidine-1-yl)-5-((6-((R)-3-(3-chlorophenyl)isoxazolidine-2-yl)pyrimidine-4-yl)amino)-4-methoxyphenyl) acrylamide]
- Ba/F3 (NPH) Activity: A (GI50 < 50 nM)

Structure (SMILES): C=CC(=O)Nc1cc(Nc2cc(N3OCC[C@@H]3c3cccc(F)c3Cl)ncn2)c(OC)cc1N1CCC(N2C[C@H]3C[C@@H]2CO3)CC1 [compound 634, N-(2-(4-((1R,4R)-2-oxa-5-azabicyclo [2.2.1]heptane-5-yl)piperidine-1-yl)-5-((6-((R)-3-(2-chloro-3-fluorophenyl)isoxazolidine-2-yl)pyrimidine-4-yl)amino)-4-methoxyphenyl) acrylamide]
- Ba/F3 (NPH) Activity: A (GI50 < 50 nM)

Structure (SMILES): C=CC(=O)Nc1cc(Nc2cc(N3OCC[C@@H]3Cc3ccccc3)ncn2)c(OC)cc1N1CC[C@@H](N(C)C)C1 [compound 964, N-(5-((6-((S)-3-benzylisoxazolidine-2-yl)pyrimidine-4-yl)amino)-2-((R)-3-(dimethylamino)pyrolidine-1-yl)-4-methoxyphenyl) acrylamide]
- Ba/F3 (NPH) Activity: A (GI50 < 50 nM)

Structure (SMILES): C=CC(=O)Nc1cc(Nc2cc(N3OCC[C@@H]3c3ccc(F)cc3F)ncn2)c(OC)cc1N1CCN(C2CC2)CC1 [compound 344, N-(2-(4-cyclopropylpiperazine-1-yl)-5-((6-((R)-3-(2,4-difluorophenyl)isoxazolidine-2-yl)pyrimidine-4-yl)amino)-4-methoxyphenyl) acrylamide]
- Ba/F3 (NPH) Activity: A (GI50 < 50 nM)

Structure (SMILES): C=CC(=O)Nc1cc(Nc2cc(N3OCC[C@@H]3c3cccc(Cl)c3F)ncn2)c(OC)cc1N1CCC(N2CCN(C3CC3)C[C@@H]2C)CC1 [Example 150, N-(5-((6-((R)-3-(3-chloro-2-fluorophenyl)isoxazolidine-2-yl)pyrimidine-4-yl)amino)-2-(4-((S)-4-cyclopropyl-2-methylpiperazine-1-yl)piperidine-1-yl)-4-methoxyphenyl) acrylamide]
- Ba/F3 (NPH) Activity: A (GI50 < 50 nM)
